Source: patent US20100063047A1 (KALYPSYS, INC., priority 2008, published 2010)

What was measured:
human H1 = biological target: T1, human H1 (Homo sapiens, UniProt P35367); assay: In vitro histamine H1 receptor cell-based aequorin bioluminescence antagonist assay; details: CHO-K1 cells expressing human H1 and aequorin; histamine at EC80; read-out: H1 Antagonist EC50
T1 construct: host or cells: CHO-K1, also expressing mitochondrion-targeted aequorin
Procedure, shortened: (§1)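 CHO-K1 cells stably expressing human H1 or H4 plus mitochondrial aequorin (H4 also with Gα16), loaded with 5 μM coelenterazine-h for 4 h at ~21 °C. Compounds preincubated 15 min at room temperature, then histamine at EC80 added.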

[1] = test system: tissue eosinophil peroxidase (EPO); assay: Allergic conjunctivitis in passively sensitized guinea pigs, conjunctival EPO activity; format: in vivo; parameters: key: a test compound was assigned a “+” if a 0.01% bid dose was statistically equivalent to dexamethasone with respect to reduction of EPO activity; a “−” was assigned if the compound was statistically inferior to dexamethasone and not different than vehicle; details: 0.01% bid topical dose (1 hour prior to and 8 hours after challenge); reduction of conjunctival EPO activity 24 h after ovalbumin challenge, compared with 0.1% w/v dexamethasone; guinea pig
Experimental: Allergic Conjunctivitis in Passively Sensitized Guinea Pigs
Male Hartley VAF outbred guinea pigs were passively sensitized to ovalbumin by a single OD subconjunctival injection of undiluted guinea pig anti-ovalbumin antiserum 24 hours before OD topical challenge with 500 μg ovalbumin in saline. Control animals were injected with saline only and challenged with ovalbumin. To determine acute phase drug efficacy, 30 min after challenge animals were clinically scored by a masked observer for severity of signs of conjunctivitis based on a standard scale. Test compounds were administered topically 1 hour prior to challenge (QD protocol), or 1 hour prior to challenge and again 8 hours after challenge (BID protocol). Twenty-four hours after challenge, animals were euthanized and conjunctivae were harvested for determination of tissue eosinophil peroxidase (EPO) concentration as a marker of allergic inflammation. Homogenates of freshly collected tissues were prepared by shaking the tissues in 2 mL round-bottom tubes containing 0.5 mL of homogenization buffer (50 mM Tris HCl, pH 8.0, 6 mM KBr) and one 5-mm stainless steel bead on a Qiagen TissueLyser at 30 Hz for 5 min. Homogenates were frozen and thawed once, then centrifuged at 10,000 rpm for 5 min. EPO activity in supernatants was measured by reacting diluted homogenates with a solution of 6 mM o-phenylenediamine substrate and 8.8 mM H2O2 in homogenization buffer for 3 min. The reaction was stopped with 4M H2SO4 and absorbances were measured at 490 nm on a spectrophotometric plate reader. Total EPO in samples was calculated from a standard curve of recombinant human EPO in each assay. EPO activity was normalized to total protein concentration (Pierce BCA assay) in supernatants. Background EPO activity was determined from the unsensitized, antigen-challenged control group. Percent inhibition was calculated from the sensitized, antigen-challenged, vehicle-treated control group in each experiment. Ovalbumin-injected animals dosed topically with 0.1% w/v dexamethasone (dex) served as positive control. Groups were compared by ANOVA with Dunnett's or Tukey's post-hoc tests where appropriate with significance assigned at the 95% confidence level.
The table below summarizes the results.

human H4 = biological target: T2, human H4 (Homo sapiens, UniProt Q9H3N8); assay: In vitro histamine H4 receptor cell-based aequorin bioluminescence antagonist assay; details: CHO-K1 cells expressing human H4, aequorin and Gα16; histamine at EC80
T2 construct: host or cells: CHO-K1, also expressing mitochondrion-targeted aequorin and human Gα16
Procedure, shortened: as §1

T1 sequence (P35367 whole entry): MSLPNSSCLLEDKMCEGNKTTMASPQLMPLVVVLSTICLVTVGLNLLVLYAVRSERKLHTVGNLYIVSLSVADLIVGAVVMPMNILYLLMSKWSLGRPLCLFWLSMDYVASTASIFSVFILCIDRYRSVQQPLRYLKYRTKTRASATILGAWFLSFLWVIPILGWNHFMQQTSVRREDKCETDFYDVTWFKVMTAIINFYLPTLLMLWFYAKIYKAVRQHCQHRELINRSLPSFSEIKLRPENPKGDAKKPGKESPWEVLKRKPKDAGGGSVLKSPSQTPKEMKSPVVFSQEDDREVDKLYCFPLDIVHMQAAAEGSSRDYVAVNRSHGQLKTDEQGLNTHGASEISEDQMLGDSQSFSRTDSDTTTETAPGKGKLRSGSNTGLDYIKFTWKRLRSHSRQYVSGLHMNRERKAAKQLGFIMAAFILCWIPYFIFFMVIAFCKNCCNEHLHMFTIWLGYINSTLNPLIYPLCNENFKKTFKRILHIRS

| Structure (SMILES) | EC50 (human H1) [µM] | EC50 (human H4) [µM] | BID activity [1] |
| --- | --- | --- | --- |
| Cc1sc2ncnc(NCCc3ccccc3Cl)c2c1C [Example 43, N-[2-(2-chlorophenyl)ethyl]-5,6-dimethylthieno[2,3-d]pyrimidin-4-amine] | > 10 |  | − |
| Cc1csc2ncnc(N(C)CC(O)c3ccccc3)c12 (centres unmarked) [Example 227, 2-[methyl({5-methylthieno[2,3-d]pyrimidin-4-yl})amino]-1-phenylethan-1-ol] | > 10 | > 10 |  |
| Cc1csc2ncnc(NCCN(C(C)C)C(C)C)c12 [Example 137] | > 10 | > 10 |  |
| Cc1csc2ncnc(NCCN)c12 [Example 55, N-(2-aminoethyl)-5-methylthieno[2,3-d]pyrimidin-4-amine] | > 10 | > 10 |  |
| Cc1csc2ncnc(NCc3ccncc3)c12 [Example 86, 5-methyl-N-(pyridin-4-ylmethyl)thieno[2,3-d]pyrimidin-4-amine] | > 10 | > 10 |  |
| Cc1csc2ncnc(CC(=O)Nc3ccc(Cl)cc3)c12 [Example 33, N-(4-chlorophenyl)-2-(5-methylthieno[2,3-d]pyrimidin-4-yl)acetamide] | > 10 | > 10 |  |
| CCN(CC)CCN(Cc1ccccc1)c1ncnc2scc(C)c12 [Example 272, N-benzyl-N-[2-(diethylamino)ethyl]-5-methylthieno[2,3-d]pyrimidin-4-amine] | > 10 | > 10 |  |
| CCN(CCCCO)c1ncnc2scc(C)c12 [Example 207, 4-[ethyl({5-methylthieno[2,3-d]pyrimidin-4-yl})amino]butan-1-ol] | > 10 | > 10 |  |
| Cc1csc2ncnc(N3CCCC(CO)C3)c12 (centres unmarked) [Example 204, (1-{5-methylthieno[2,3-d]pyrimidin-4-yl}piperidin-3-yl)methanol] | > 10 | > 10 |  |
| C=CCN(c1ncnc2scc(C)c12)C1CCCCC1 [Example 223, N-cyclohexyl-5-methyl-N-(prop-2-en-1-yl)thieno[2,3-d]pyrimidin-4-amine] | > 10 | > 10 |  |
| COc1ccc(Nc2ncnc3scc(C)c23)cc1OC [Example 147, N-(3,4-dimethoxyphenyl)-5-methylthieno[2,3-d]pyrimidin-4-amine] | > 10 | > 10 |  |
| Cc1csc2ncnc(N3CCC(O)(c4ccc(Cl)cc4)CC3)c12 [Example 280, 4-(4-chlorophenyl)-1-{5-methylthieno[2,3-d]pyrimidin-4-yl}piperidin-4-ol] | > 10 | > 10 |  |
| Cc1csc2ncnc(N(CCC#N)Cc3cccnc3)c12 [Example 232, 3-({5-methylthieno[2,3-d]pyrimidin-4-yl}(pyridin-3-ylmethyl)amino)propanenitrile] | > 10 | > 10 |  |
| COc1ccc(CNc2ncnc3scc(C)c23)cc1O [Example 171, 2-methoxy-5-[({5-methylthieno[2,3-d]pyrimidin-4-yl}amino)methyl]phenol] | > 10 | > 10 |  |
| CCC(C)Nc1ncnc2scc(C)c12 (centres unmarked) [Example 60, N-(butan-2-yl)-5-methylthieno[2,3-d]pyrimidin-4-amine] | > 10 | > 10 |  |
| COc1ccccc1N1CCN(c2ncnc3scc(C)c23)CC1 [Example 262, 1-(2-methoxyphenyl)-4-{5-methylthieno[2,3-d]pyrimidin-4-yl}piperazine] | > 10 | > 10 |  |
| Cc1csc2ncnc(NCCN3CCCCC3)c12 [Example 107, 5-methyl-N-[2-(piperidin-1-yl)ethyl]thieno[2,3-d]pyrimidin-4-amine] | > 10 | > 10 |  |
| Cc1csc2ncnc(N(C)CCO)c12 [Example 183, 2-[methyl({5-methylthieno[2,3-d]pyrimidin-4-yl})amino]ethan-1-ol] | > 10 | > 10 |  |
| Cc1csc2ncnc(NC(C)Cc3ccncc3)c12 (centres unmarked) [Example 120, 5-methyl-N-[1-(pyridin-4-yl)propan-2-yl]thieno[2,3-d]pyrimidin-4-amine] | > 10 | > 10 |  |
| Cc1csc2ncnc(N3CCN(c4ccccc4Cl)CC3)c12 [Example 3, 4-(4-(2-chlorophenyl)piperazin-1-yl)-5-methylthieno[2,3-d]pyrimidine] | > 10 | > 10 |  |
| Cc1csc2ncnc(NCC(=O)c3ccccc3)c12 [Example 161, 2-({5-methylthieno[2,3-d]pyrimidin-4-yl}amino)-1-phenylethan-1-one] | > 10 | > 10 |  |
| Cc1csc2ncnc(N3CCN(c4ccc(F)cc4F)CC3)c12 [Example 267, 1-(2,4-difluorophenyl)-4-{5-methylthieno[2,3-d]pyrimidin-4-yl}piperazine] | > 10 | > 10 |  |
| Cc1csc2ncnc(N3CCC(C(N)=O)CC3)c12 [Example 211, 1-{5-methylthieno[2,3-d]pyrimidin-4-yl}piperidine-4-carboxamide] | > 10 | > 10 |  |
| Cc1csc2ncnc(N3CCCC3CO)c12 (centres unmarked) [Example 193, (1-{5-methylthieno[2,3-d]pyrimidin-4-yl}pyrrolidin-2-yl)methanol] | > 10 | > 10 |  |

More lines, main results first:

| EC50 (human H1) [µM] | EC50 (human H4) [µM] | Structure (SMILES) | BID activity [1] |
| --- | --- | --- | --- |
| > 10 | > 10 | Cc1csc2ncnc(NCCCCO)c12 [Example 74, 4-({5-methylthieno[2,3-d]pyrimidin-4-yl}amino)butan-1-ol] |  |
| > 10 | > 10 | Cc1csc2ncnc(NCCC#N)c12 [Example 57, 3-({5-methylthieno[2,3-d]pyrimidin-4-yl}amino)propanenitrile] |  |
| > 10 | > 10 | CCCN(C)c1ncnc2scc(C)c12 [Example 182, N,5-dimethyl-N-propylthieno[2,3-d]pyrimidin-4-amine] |  |
| > 10 | > 10 | Cc1csc2ncnc(N(CCN(C)C)Cc3ccccc3)c12 [Example 244, N-benzyl-N-[2-(dimethylamino)ethyl]-5-methylthieno[2,3-d]pyrimidin-4-amine] |  |
| > 10 | > 10 | Cc1csc2ncnc(C(=O)NCc3ccc(Cl)cc3)c12 [Example 34, N-(4-chlorobenzyl)-5-methylthieno[2,3-d]pyrimidine-4-carboxamide] |  |
| > 10 | > 10 | Cc1csc2ncnc(N3CCN(C4CCCCC4)CC3)c12 [Example 239, 1-cyclohexyl-4-{5-methylthieno[2,3-d]pyrimidin-4-yl}piperazine] |  |
| > 10 | > 10 | Cc1csc2ncnc(N(CCO)[C@H](C)c3ccccc3)c12 [Example 236, 2-({5-methylthieno[2,3-d]pyrimidin-4-yl}[(1R)-1-phenylethyl]amino)ethan-1-ol] |  |
| > 10 | > 10 | CCN(CC)c1ncnc2scc(C)c12 [Example 181, N,N-diethyl-5-methylthieno[2,3-d]pyrimidin-4-amine] |  |
| > 10 | > 10 | Clc1ccc(CCNc2ncnc3[nH]ccc23)cc1 [Example 28, N-(4-chlorophenethyl)-7H-pyrrolo[2,3-d]pyrimidin-4-amine] |  |
| > 10 | > 10 | COc1ccc(C(=O)CNc2ncnc3scc(C)c23)cc1 [Example 174, 1-(4-methoxyphenyl)-2-({5-methylthieno[2,3-d]pyrimidin-4-yl}amino)ethan-1-one] |  |
| > 10 | > 10 | Cc1csc2ncnc(N3CCN(c4ccccc4)CC3)c12 [Example 233, 1-{5-methylthieno[2,3-d]pyrimidin-4-yl}-4-phenylpiperazine] |  |
| > 10 | > 10 | Cc1csc2ncnc(N3CCN(c4ccc(F)cc4)CC3)c12 [Example 246, 1-(4-fluorophenyl)-4-{5-methylthieno[2,3-d]pyrimidin-4-yl}piperazine] |  |
| > 10 | > 10 | Cc1csc2ncnc(NC3CCCc4ccccc43)c12 (centres unmarked) [Example 138, 5-methyl-N-(1,2,3,4-tetrahydronaphthalen-1-yl)thieno[2,3-d]pyrimidin-4-amine] |  |
